Laboratory results reported in US11000033B2, “Ketone or oxime compound, and herbicide” (NISSAN CHEMICAL CORPORATION, priority 2014, dated 2021).

Experiments:
Format in all cases: in vivo
corn = assay: Test Example 5: effect on crop by foliage application, plastic box (symbol c); conditions: 320 g/ha, 3 weeks after application
How it was run: (§1)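 Greenhouse test at 25° C. to 30° C. Seeds of crops and weeds were spot-sown in boxes of sterilized diluvial soil under roughly 1.5 cm soil cover, then grown for foliage treatment.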

[1] = tested on: Echinochloa oryzacola Vasing.; assay: Test Example 1: herbicidal activity, application before weed generation in submerged conditions (symbol A); conditions: application herbicide amount 320 g/ha
How it was run: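 Weeds are sown into submerged alluvial soil alongside transplanted 2.5-leaf rice, and the compound, as an emulsion diluted to a set rate, is applied onto the water before emergence. Rating on the 0–5 herbicidal-ratio scale follows 3 weeks of greenhouse growth at 25–30 °C.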

Veronica persica [2] = assay: Test Example 4: herbicidal effect by soil treatment (symbol R); conditions: application herbicide amount 320 g/ha
How it was run: (§2)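 Seeds were sown in sterilized diluvial soil, covered with about 1.5 cm of soil, and the soil surface was sprayed with a water-diluted emulsion of the compound at a predetermined rate. Plants grew in a greenhouse at 25° C. to 30° C.; effects were scored visually 3 weeks after application.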

Galium spurium = assay: Test Example 5: herbicidal effect by foliage application, plastic box (symbol Q); conditions: 320 g/ha, 3 weeks after application
How it was run: (§3)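 Effect is rated 3 weeks after a foliar spray of water-diluted emulsion concentrate at a predetermined herbicide amount. Plants had grown 14 days in a 25° C. to 30° C. greenhouse from seed in sterilized diluvial soil.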

Amaranthus retroflexus = assay: Test Example 4: herbicidal effect by soil treatment (symbol N); conditions: application herbicide amount 320 g/ha
How it was run: as §2

Chenopodium album = assay: Test Example 5: herbicidal effect by foliage application, plastic box (symbol O); conditions: 320 g/ha, 3 weeks after application
How it was run: as §3

soybean = assay: Test Example 5: effect on crop by foliage application, plastic box (symbol d); conditions: 320 g/ha, 3 weeks after application
How it was run: as §1

Cyperus difformis = assay: Test Example 3: herbicidal effect by foliage application, Wagner pot (symbol E); conditions: application herbicide amount 320 g/ha
How it was run: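 Foliar spray of a water-diluted emulsion at a predetermined herbicide amount, applied to 14-day-old plants. Seedlings were raised in flooded alluvial soil (0.1–0.5 cm water) at 25–30 °C in a greenhouse. Injury was rated after 3 weeks against fixed criteria.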

Apera spica-venti = assay: Test Example 4: herbicidal effect by soil treatment (symbol L); conditions: application herbicide amount 320 g/ha
How it was run: as §2

wheat = assay: Test Example 4: effect on crop by soil treatment (symbol e); conditions: application herbicide amount 320 g/ha
How it was run: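 Steps: fill box with sterilized diluvial soil; sow seed spot-like; cover with ~1.5 cm soil; grow in greenhouse (25° C. to 30° C.).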

Abutilon theophrasti = assay: Test Example 4: herbicidal effect by soil treatment (symbol M); conditions: application herbicide amount 320 g/ha
How it was run: as §2

Veronica persica [3] = assay: Test Example 5: herbicidal effect by foliage application, plastic box (symbol R); conditions: 320 g/ha, 3 weeks after application
How it was run: as §3

SMILES | c: corn, effect on crop grade (corn) | Herbicidal effect grade, A: Echinochloa oryzacola Vasing. [1] | R: Veronica persica, herbicidal effect grade (Veronica persica [2]) | Q: Galium spurium, herbicidal effect grade (Galium spurium) | N: Amaranthus retroflexus, herbicidal effect grade (Amaranthus retroflexus) | O: Chenopodium album, herbicidal effect grade (Chenopodium album) | d: soybean, effect on crop grade (soybean) | herbicidal effect on E, grade 0-5 (Cyperus difformis) | L: Apera spica-venti, herbicidal effect grade (Apera spica-venti) | e: wheat, effect on crop grade (wheat) | M: Abutilon theophrasti, herbicidal effect grade (Abutilon theophrasti) | R: Veronica persica, herbicidal effect grade (Veronica persica [3])
CC#Cc1cc(C)c(C2=C(O)CC(CC(C)=NOC)C2=O)c(CC)c1 (mixture of isomers) [6-006] | 1 (Herbicidal ratio of 5% or higher and lower than 20%) | 5 (Herbicidal ratio of 90% or more (almost completely withered)) | 2 (Herbicidal ratio of 20% or higher and lower than 40%) | 0 (Herbicidal ratio of 5% or lower (almost no effect)) | 3 (Herbicidal ratio of 40% or higher and lower than 70%) | 0 (Herbicidal ratio of 5% or lower (almost no effect)) | 0 (Herbicidal ratio of 5% or lower (almost no effect)) | 5 (Herbicidal ratio of 90% or more (almost completely withered)) | 5 (Herbicidal ratio of 90% or more (almost completely withered)) | 5 (Herbicidal ratio of 90% or more (almost completely withered)) | 4 (Herbicidal ratio of 70% or higher and lower than 90%) | 
CCc1cc(C#C[Si](C)(C)C)cc(C)c1C1=C(O)CC(CC(C)=NOC)C1=O (mixture of isomers) [6-008] | 3 (Herbicidal ratio of 40% or higher and lower than 70%) | 5 (Herbicidal ratio of 90% or more (almost completely withered)) | 0 (Herbicidal ratio of 5% or lower (almost no effect)) | 0 (Herbicidal ratio of 5% or lower (almost no effect)) | 0 (Herbicidal ratio of 5% or lower (almost no effect)) | 0 (Herbicidal ratio of 5% or lower (almost no effect)) | 1 (Herbicidal ratio of 5% or higher and lower than 20%) | 5 (Herbicidal ratio of 90% or more (almost completely withered)) | 5 (Herbicidal ratio of 90% or more (almost completely withered)) | 4 (Herbicidal ratio of 70% or higher and lower than 90%) | 0 (Herbicidal ratio of 5% or lower (almost no effect)) | 
Cc1cc(C)c(C2=C(O)CC(CC(=O)c3ccc(F)cc3)C2=O)c(C)c1 (stereo not drawn) [2-032] | 1 (Herbicidal ratio of 5% or higher and lower than 20%) | 4 (Herbicidal ratio of 70% or higher and lower than 90%) | 0 (Herbicidal ratio of 5% or lower (almost no effect)) | 0 (Herbicidal ratio of 5% or lower (almost no effect)) | 0 (Herbicidal ratio of 5% or lower (almost no effect)) | 0 (Herbicidal ratio of 5% or lower (almost no effect)) | 0 (Herbicidal ratio of 5% or lower (almost no effect)) | 4 (Herbicidal ratio of 70% or higher and lower than 90%) |  | 0 (Herbicidal ratio of 5% or lower (almost no effect)) | 0 (Herbicidal ratio of 5% or lower (almost no effect)) | 0 (Herbicidal ratio of 5% or lower (almost no effect))
